Measurements published in US20240390434A1, “PROBIOTIC ENHANCERS AND USES THEREOF” (Blis Technologies Limited, priority 2021, published 2024).

Columns and labels:
Assay type in all cases: cell-based
[1] = test system: indicator bacterial test strains; assay: Inhibitory activity of freeze dried raw ingredient powder, M18; settings: galactose 0.5% w/w; raffinose 2.5% w/w; or combination
Procedure: Method: The amount of raffinose and galactose used was calculated based on the volume of the area of the producer streak, (which was calculated to be 4.25 g) to allow for the absorption of the saccharides into the agar. Based on this, amount of 0.021 g (i.e. 0.5% w/w galactose of 4.25 g agar volume) of galactose, 0.11 g (i.e 2.5% w/w) of raffinose and the combination of galactose (0.5% w/w) and raffinose (2.5% w/w) (0.13 g total) were weighed into sterile containers. K12 and/or M18 raw ingredient were suspended and diluted with sterile distilled water to a concentration of 1-2×10^6 cfu/100 μl. Then, […] of K12 only, M18 only, and K12±M18 suspensions were spread as a 1 cm streak down the middle of a CABCa agar plate using a sterile spreader. […] Bacterial growth was then removed using a microscope slide, and the pH of the agar in the producer streak area was measured and adjusted to pH 6.5-7.5 using 0.5M sodium carbonate (pH 11) before surface sterilizing the plates with chloroform vapour. […] Zones of inhibition for each test organism were then measured in mm using a ruler. The amount of raffinose and galactose to be used was calculated based on the volume of the area of the producer streak, (which was calculated to be 4.25 g) to allow for absorption into the agar.

L. lactis T-21 = assay: Dose response deferred antagonism assay, producer M18
M. catarrhalis TW1 = assay: Deferred antagonism assay, producer S. salivarius K12
Procedure: (§1) 1-2 producer strain colonies were transferred from a stock plate into 900 μL of suspension solution using a fresh cotton swab. Following this, suspensions were vortexed, and a sample was inoculated onto solid culture media using a fresh cotton swab. The inoculation was a streak that runs diametrically across the agar plate in a 1.5 cm wide strip. The plate was then incubated. Following incubation all visible colonies were removed by swabbing them from the agar surface. The plates were then treated with chloroform by dispensing 2 ml of chloroform onto 4 cm×4 cm piece of cloth and sealing the inverted agar plate on top for 30 minutes. The plates were then air dried for 30 minutes following chloroforming. 1-2 indicator strain colonies were then transferred from a stock plate into complementary suspension solution. The suspensions were then vortexed, and a sample was inoculated onto the same agar surface. These samples were streaked in a perpendicular direction to the initial producer streak.
Each indicator streak was prepared with fresh a suspension containing cells from a corresponding stock plate containing the indicator strain of interest. Indicator strains suspension samples were transferred using a fresh cotton swab. Results were measured by qualitatively reviewing the subsequent (if any) sizes of the zones of inhibition (ZOI) of indicator strain colony growth. A positive result is when there is a distinctive reduction or complete inhibition of indicator colony growth on the culture medium.
CABCa agar plates containing various concentrations of saccharide were prepared according to the methods described in Method 1. Producer strains were transferred from stock agar plates into 900 μL THB using a fresh cotton swab. A plastic spread plater was cut to approximately 1.2 cm width and then dipped into ethanol and left to air dry to ensure sterility. A 100 μL sample of the producer strain suspension was then dispensed onto the agar surface in a straight line running diametrically across the agar surface in (approximately) 20 μL spots. The spots were spaced approximately 1.5 cm apart from each other. The plastic spreader was then used to evenly distribute the spots across the agar surface in a 1.5 cm wide strip. This step was taken to ensure an even producer streak was inoculated onto the agar surface and provided an approximate measure of the initial inoculum concentration. Separate plastic spreaders were used for samples containing different producer strains. The samples were left to soak into the agar surface until there was no visible liquid remaining on the agar surface (approximately 20 minutes). Following producer streak preparations, the deferred antagonism assay protocol was followed as per Method 2. Results were recorded by measuring the size of the zone of inhibition (ZOI) in mm.
A dose response assay was carried out according to method 3 above, except a 1.2 cm streak was used. For the individual saccharide testing the pH of the producer streak was adjusted after the growth of producer to change the acidic conditions.

ENTR indicator strains = assay: Dose response deferred antagonism assay, producer K12: average over indicators
Procedure: as §1, with “The suspensions were then vortexed, and a sample was inoculated onto the same agar surface. These samples were streaked in a perpendicular direction to the initial producer streak.” left out
Each indicator streak was prepared with fresh a suspension containing cells from a corresponding stock plate containing the indicator strain of interest. […] Results were measured by qualitatively reviewing the subsequent (if any) sizes of the zones of inhibition (ZOI) of indicator strain colony growth. […]
CABCa agar plates containing various concentrations of saccharide were prepared according to the methods described in Method 1. […] Results were recorded by measuring the size of the zone of inhibition (ZOI) in mm. […]

Structure (SMILES)	inhibitory activity of freeze-dried raw ingredient powder of M18 [1]	L. lactis zone of inhibition (L. lactis T-21; 1.5% (w/v) galactose, largest) [mm]	change in TW1 ZOI size (M. catarrhalis TW1; 1.5% galactose (w/v), peak) [mm]	Average ZOI change (ENTR indicator strains; 2% galactose) [mm]	L. lactis ZOI size (L. lactis T-21; 0.1% (w/v) raffinose) [mm]	change in ZOI size M. catarrhalis TW1 (M. catarrhalis TW1; 2.0% (w/v) raffinose, peak) [mm]	Zone of inhibition M. catarrhalis TW1 (M. catarrhalis TW1; Raffinose 1.7% wt) [mm]	Zone of inhibition M. catarrhalis TW1 (M. catarrhalis TW1; Raffinose 1.7% wt, pH adjusted) [mm]	Zone of inhibition M. catarrhalis TW1 (M. catarrhalis TW1; Raffinose 2.5% wt) [mm]	Zone of inhibition M. catarrhalis TW1 (M. catarrhalis TW1; Raffinose 2.5% wt, pH adjusted) [mm]	Zone of inhibition M. catarrhalis TW1 (M. catarrhalis TW1; Raffinose 3.3% wt) [mm]	Zone of inhibition M. catarrhalis TW1 (M. catarrhalis TW1; Raffinose 3.3% wt, pH adjusted) [mm]	Zone of inhibition M. catarrhalis TW1 (M. catarrhalis TW1; Raffinose 5% wt) [mm]	Zone of inhibition M. catarrhalis TW1 (M. catarrhalis TW1; Raffinose 5% wt, pH adjusted) [mm]	Zone of inhibition M. catarrhalis TW1 (M. catarrhalis TW1; Raffinose 10% wt) [mm]	Zone of inhibition M. catarrhalis TW1 (M. catarrhalis TW1; Raffinose 10% wt, pH adjusted) [mm]	Average ZOI change (ENTR indicator strains; 1.5% raffinose) [mm]
O=C[C@H](O)[C@@H](O)[C@@H](O)[C@H](O)CO [Galactose, D-galactose]	induced the inhibitory activity	9	12	9.5	–	–	–	–	–	–	–	–	–	–	–	–	–
OC[C@H]1O[C@H](OC[C@H]2O[C@H](O[C@]3(CO)O[C@H](CO)[C@@H](O)[C@@H]3O)[C@H](O)[C@@H](O)[C@@H]2O)[C@H](O)[C@@H](O)[C@H]1O [Raffinose, D-(+) Raffinose pentahydrate]	induced the inhibitory activity	–	–	–	20	13	0	0	10	0	0	0	5	0	6	0	10.33
